For orientation: IC50 means the point on the concentration scale where inhibition reaches its midpoint. High values mean lower potency, low ones higher potency.

Structures are written as SMILES.

In one test the target is Acetylcholinesterase (Electrophorus electricus, UniProt O42275). Description: Cholinesterases Inhibition Assay. The procedure:
(§1) The stock solutions of the target compounds were prepared in a mixture of DMSO (1 ml) and ethanol (9 ml) and diluted with 0.1 MKH2PO4/K2HPO4 buffer (pH 8.0) to obtain final concentrations. […] of substrate (acetylthiocholine iodide 0.075 m) was added to the test solution to obtain final concentration of […]. All experiments were performed based on the previously described method.[Nadri et al., Bioorg. […] Spectrophotometric measurements were performed on a UV Unico double-beam spectrophotometer. The same method was also taken for BuChE inhibition assay.

Test [1] deals with Carboxylic ester hydrolase (Equus caballus, UniProt Q9N1N9). Description: Cholinesterases Inhibition Assay. How it is done:
as §1

Sequence of Acetylcholinesterase (O42275 whole entry): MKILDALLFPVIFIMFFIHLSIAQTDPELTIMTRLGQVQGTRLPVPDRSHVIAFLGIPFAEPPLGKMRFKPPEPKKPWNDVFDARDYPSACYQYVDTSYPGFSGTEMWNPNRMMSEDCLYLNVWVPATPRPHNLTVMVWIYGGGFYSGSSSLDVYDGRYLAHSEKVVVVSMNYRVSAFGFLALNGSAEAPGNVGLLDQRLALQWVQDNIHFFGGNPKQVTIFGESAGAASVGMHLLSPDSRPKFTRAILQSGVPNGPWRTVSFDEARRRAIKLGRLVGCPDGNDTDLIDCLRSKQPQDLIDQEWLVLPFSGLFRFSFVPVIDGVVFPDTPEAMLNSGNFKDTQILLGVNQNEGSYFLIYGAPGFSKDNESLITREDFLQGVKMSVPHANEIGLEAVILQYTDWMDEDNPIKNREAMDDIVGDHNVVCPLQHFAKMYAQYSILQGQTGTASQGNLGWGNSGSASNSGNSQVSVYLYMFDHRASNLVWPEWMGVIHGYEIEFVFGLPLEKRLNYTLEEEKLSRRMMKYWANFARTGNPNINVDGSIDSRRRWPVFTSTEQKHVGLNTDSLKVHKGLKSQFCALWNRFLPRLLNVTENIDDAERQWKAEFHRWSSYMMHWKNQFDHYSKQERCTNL
Sequence of Carboxylic ester hydrolase (Q9N1N9 whole entry): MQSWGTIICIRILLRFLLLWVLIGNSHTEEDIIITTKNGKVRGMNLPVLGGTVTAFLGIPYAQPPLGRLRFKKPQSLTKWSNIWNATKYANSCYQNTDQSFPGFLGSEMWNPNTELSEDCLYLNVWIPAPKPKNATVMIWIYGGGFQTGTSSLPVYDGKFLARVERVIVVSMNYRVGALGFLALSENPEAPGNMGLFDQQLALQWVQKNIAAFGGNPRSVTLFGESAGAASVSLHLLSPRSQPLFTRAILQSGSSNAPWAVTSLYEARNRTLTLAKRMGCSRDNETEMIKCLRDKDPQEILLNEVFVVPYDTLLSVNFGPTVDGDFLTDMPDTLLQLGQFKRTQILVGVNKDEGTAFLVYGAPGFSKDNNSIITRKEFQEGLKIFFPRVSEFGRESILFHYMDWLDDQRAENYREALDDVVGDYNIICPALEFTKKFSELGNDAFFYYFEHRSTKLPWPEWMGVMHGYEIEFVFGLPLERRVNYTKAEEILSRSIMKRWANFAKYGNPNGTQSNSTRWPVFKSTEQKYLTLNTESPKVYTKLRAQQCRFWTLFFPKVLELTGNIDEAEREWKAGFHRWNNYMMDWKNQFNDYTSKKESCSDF

In the case of `c1ccc(CN2CCN(Cc3ccc(-c4nc5ccccc5o4)cc3)CC2)cc1` [2-(4-((4-Benzylpiperazin-1-yl)methyl)phenyl)benzo[d]oxazole (6i)], the IC50 (against Acetylcholinesterase; in test [1]) was more than 100 µM in each case.

For the compound `c1ccc(CC2CCN(Cc3ccc(-c4nc5ccccc5o4)cc3)CC2)cc1` [2-(4-((4-Benzylpiperidin-1-yl)methyl)phenyl)benzo[d]oxazole (6b)], the IC50 (at Acetylcholinesterase; in test [1]) was more than 100 µM in each case.

In the case of `CCN1CCN(Cc2ccc(-c3nc4ccccc4o3)cc2)CC1` [2-(4-((4-Ethylpiperazin-1-yl)methyl)phenyl)benzo[d]oxazole (6g)], the IC50 at Acetylcholinesterase was 38.2 µM; in test [1], more than 100 µM.

With `CN1CCN(Cc2ccc(-c3nc4ccccc4o3)cc2)CC1` [2-(4-((4-Methylpiperazin-1-yl)methyl)phenyl)benzo[d]oxazole (6f)], the results for the IC50 (against Acetylcholinesterase; in test [1]) were 62.2 µM and more than 100 µM, respectively.

Consider `c1ccc(N2CCN(Cc3ccc(-c4nc5ccccc5o4)cc3)CC2)cc1` [2-(4-((4-Phenylpiperazine-1-yl)methyl)phenyl)benzo[d]oxazole (6h)], for which the IC50 (at Acetylcholinesterase; in test [1]) was more than 100 µM throughout.

In the case of `c1ccc2oc(-c3ccc(CN4CCNCC4)cc3)nc2c1` [2-(4-((Piperazin-1-yl)methyl)phenyl)benzo[d]oxazole (6e)], the IC50 came to 3.45 µM against Acetylcholinesterase and 21.5 µM in test [1].

Take `c1ccc2oc(-c3ccc(CN4CCCCC4)cc3)nc2c1` [2-(4-((Piperidin-1-yl)methyl)phenyl)benzo[d]oxazole (6a)]: the IC50 came out at 1.03 µM against Acetylcholinesterase and 6.6 µM in test [1].

In the case of `c1ccc2oc(-c3ccc(CN4CCCC4)cc3)nc2c1` [2-(4-((Pyrrolidin-1-yl)methyl)phenyl)benzo[d]oxazole (6j)], the values for the IC50 (at Acetylcholinesterase; in test [1]) were 1.35 µM and 8.1 µM, respectively.

`c1ccc2oc(-c3ccc(CN4CCOCC4)cc3)nc2c1` [2-(4-(Morpholinomethyl)phenyl)benzo[d]oxazole (6c)]: the IC50 at Acetylcholinesterase is 20.1 µM; in test [1], more than 100 µM.

For the compound `c1ccc2oc(-c3ccc(CN4CCSCC4)cc3)nc2c1` [2-(4-(Thiomorpholinomethyl)phenyl)benzo[d]oxazole (6d)], the IC50 against Acetylcholinesterase is 2.55 µM; in test [1] it was 16.9 µM.

`CN(Cc1ccccc1)Cc1ccc(-c2nc3ccccc3o2)cc1` [(4-(Benzo[d]oxazol-2-yl)phenyl)-N-benzyl-N-methylmethanamine (6l)]: the values for the IC50 (at Acetylcholinesterase; in test [1]) were 30.8 µM and more than 100 µM, respectively.

For the compound `c1ccc(CNCc2ccc(-c3nc4ccccc4o3)cc2)cc1` [(4-(Benzo[d]oxazol-2-yl)phenyl)-Nbenzylmethylamine (6k)], the IC50 against Acetylcholinesterase is 25.4 µM; in test [1] it was more than 100 µM.

Consider `c1ccc(CN2CCC(NCc3ccc(-c4nc5ccccc5o4)cc3)CC2)cc1` [N-((4-(benzo[d]oxazol-2-yl)phenyl)methyl)-1-benzylpiperidin-4-amine (6n)], for which the IC50 against Acetylcholinesterase was determined as 7.76 µM; in test [1], 50.1 µM.

Consider `CCN(Cc1ccccc1)Cc1ccc(-c2nc3ccccc3o2)cc1` [N-((4-(benzo[d]oxazol-2-yl)phenyl)methyl)-N-benzylethanamine (6m)], for which the IC50 against Acetylcholinesterase was 56.4 µM; in test [1] it was more than 100 µM.

These data come from BindingDB's records for doi:10.1111/cbdd.12902 (Shahid Bahonar University of Kerman, 2017).
